# Data reported in article PMC6964137 (The Oncologist, 2019).
# Where two headings read alike, the source gives them in different places.
# Columns and labels:
# ovarian cancer = settings: single agent, irrespective of BRAF or KRAS status; cited from earlier work
# [1] = Plasma pharmacokinetics, Cycle 1; format: in vivo, patients
# [2] = cited from earlier work
# [3] = test system: NRAS- and BRAF-mutant melanoma; settings: single agent, cited from earlier work
# [4] = cited from earlier work; remark: listed apart in the source
compound,measurement,setting,value
Cn1cnc2c(F)c(Nc3ccc(Br)cc3Cl)c(C(=O)NOCCO)cc21 [selumetinib],Response rate,ovarian cancer,15%
Cn1cnc2c(F)c(Nc3ccc(Br)cc3F)c(C(=O)NOCCO)cc21 [binimetinib],AUC,"[1]; human, plasma, oral, mean AUCtau, binimetinib 45 mg b.i.d. and buparlisib 80 mg q.d.",2.67 µg·h/mL
same,Effect of buparlisib on PK of binimetinib,[1]; in vivo,not altered by buparlisib
same,"MTD, single agent",[2],60 mg b.i.d.
same,mean AUCtau,"[2]; single-agent phase I study, same dosing schedule","1,740 ng•hour/mL"
same,Objective response rate,[3]; BRAF-mutant melanoma,6%
same,Objective response rate,[3]; NRAS-mutant melanoma,11%
Nc1cc(C(F)(F)F)c(-c2cc(N3CCOCC3)nc(N3CCOCC3)n2)cn1 [buparlisib],AUC,"[1]; human, plasma, oral, AUCtau, present study, combination at RP2D",11.7 µg·h/mL
same,Cmax,"[1]; human, plasma, oral, Cmax, present study, combination at RP2D",0.764 µg/mL
same,Reduction of Cmax and AUCtau when combined with binimetinib,"[1]; in many patients, versus single-agent data",> 50%
same,"MTD, single agent",[4],100 mg once daily (q.d.)
same,AUCtau,[4]; single-agent study,"15,413 ng•hour/mL"
same,Cmax,[4]; single-agent study,"1,098 ng/mL"
